Reference: the supplement of paper PMC6045584
± gives the standard deviation of the averaged measurements.

How the values were obtained:
[1] = compound: Cc1nc(Nc2n[nH]c3c2CN(C(=O)N[C@H](CN(C)C)c2ccccc2)C3(C)C)c2sccc2n1; assay: area under dose-response curve of surviving fraction (unscaled, Aref=0) (surviving fraction x log10(nM)); higher = more resistant; conditions: exposure time: 5 days; dose range 0.5-1000 nM
Method in brief: (§1)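 Inhibitor was applied to tumour cell lines at eight concentrations (0.5 to 1000 nM) for five days in 384-well plates. Luminescence from CellTiter-Glo, scaled to DMSO-only wells, gave surviving fractions in three screens per line, and these were fitted by 3-parameter logistic regression with the drc R package. The area under the curve is an unscaled activity area. Aref was 0, and dose was on a log10 scale.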

GEMCITABINE = compound: Nc1ccn([C@@H]2O[C@H](CO)[C@@H](O)C2(F)F)c(=O)n1 [GEMCITABINE]; assay: as above; conditions: exposure time: 5 days; dose range 0.5-1000 nM
Method in brief: as §1

VINORELBINE = compound: CCC1=C[C@@H]2CN(C1)Cc1c([nH]c3ccccc13)[C@@](C(=O)OC)(c1cc3c(cc1OC)N(C)[C@H]1[C@@](O)(C(=O)OC)[C@H](OC(C)=O)[C@]4(CC)C=CCN5CC[C@]31[C@@H]54)C2 [VINORELBINE]; assay: as above; conditions: exposure time: 5 days; dose range 0.5-1000 nM
Method in brief: as §1

ETOPOSIDE = compound: COc1cc([C@@H]2c3cc4c(cc3[C@@H](O[C@@H]3O[C@@H]5CO[C@@H](C)O[C@H]5[C@H](O)[C@H]3O)[C@H]3COC(=O)[C@H]23)OCO4)cc(OC)c1O [ETOPOSIDE]; assay: as above; conditions: exposure time: 5 days; dose range 0.5-1000 nM
Method in brief: as §1

EVEROLIMUS = compound: CO[C@H]1C[C@@H]2CC[C@@H](C)[C@@](O)(O2)C(=O)C(=O)N2CCCC[C@H]2C(=O)O[C@H]([C@H](C)C[C@@H]2CC[C@@H](OCCO)[C@H](OC)C2)CC(=O)[C@H](C)/C=C(\C)[C@@H](O)[C@@H](OC)C(=O)[C@H](C)C[C@H](C)/C=C/C=C/C=C/1C [EVEROLIMUS]; assay: surviving fraction relative to DMSO-only wells; higher = less growth inhibition; conditions: exposure time: 5 days
Method in brief: (§2)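 Continuous five-day exposure to inhibitors at 0.5, 1, 5, 10, 50, 100, 500 and 1000 nM started 24 hours after log-phase tumour cell lines were seeded at 250–500 cells per well in 384-well plates. Luminescence was read after 10 minutes at room temperature. Viability is given as surviving fraction, meaning CellTiter-Glo luminescence normalised to the median of DMSO-only wells.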

ERLOTINIB = compound: C#Cc1cccc(Nc2ncnc3cc(OCCOC)c(OCCOC)cc23)c1 [ERLOTINIB]; assay: as above; conditions: exposure time: 5 days
Method in brief: as §2

| Test System | area under dose-response curve [1] | area under dose-response curve (GEMCITABINE) | area under dose-response curve (VINORELBINE) | area under dose-response curve (ETOPOSIDE) | surviving fraction (EVEROLIMUS; 0.5 nM) | surviving fraction (EVEROLIMUS; 1 nM) | surviving fraction (EVEROLIMUS; 5 nM) | surviving fraction (EVEROLIMUS; 10 nM) | surviving fraction (EVEROLIMUS; 50 nM) | surviving fraction (EVEROLIMUS; 100 nM) | surviving fraction (EVEROLIMUS; 500 nM) | surviving fraction (EVEROLIMUS; 1000 nM) | surviving fraction (ERLOTINIB; 0.5 nM) | surviving fraction (ERLOTINIB; 1 nM) | surviving fraction (ERLOTINIB; 5 nM) | surviving fraction (ERLOTINIB; 10 nM) | surviving fraction (ERLOTINIB; 50 nM) | surviving fraction (ERLOTINIB; 100 nM) | surviving fraction (ERLOTINIB; 500 nM) | surviving fraction (ERLOTINIB; 1000 nM) |
| --- | --- | --- | --- | --- | --- | --- | --- | --- | --- | --- | --- | --- | --- | --- | --- | --- | --- | --- | --- | --- |
| SCC90 HEADNECK | 1.7 | 1.46 | 1.52 | 3.67 | 0.857 ± 0.032 | 0.816 ± 0.08 | 0.68 ± 0.048 | 0.643 ± 0.028 | 0.556 ± 0.019 | 0.563 ± 0.039 | 0.522 ± 0.063 | 0.5257 ± 0.0047 | 1.1 ± 0.091 | 1.1 ± 0.011 | 1.13 ± 0.038 | 1 ± 0.036 | 0.94 ± 0.11 | 0.82 ± 0.086 | 0.585 ± 0.049 | 0.534 ± 0.057 |
| SG27 HEADNECK | 1.72 | 3.22 | 3.81 | 3.45 | 1.1 ± 0.11 | 1.02 ± 0.019 | 0.978 ± 0.07 | 1.01 ± 0.046 | 0.871 ± 0.037 | 0.904 ± 0.11 | 0.92 ± 0.046 | 0.903 ± 0.08 | 1 ± 0.036 | 0.979 ± 0.051 | 1.08 ± 0.062 | 1.06 ± 0.16 | 1.2 ± 0.082 | 1.1 ± 0.052 | 1.1 ± 0.037 | 1.1 ± 0.065 |
| SJSA1 BONE | 1.92 | 5.62 | 2.09 | 3.13 | 1.58 ± 0.029 | 1.72 ± 0.099 | 1.5 ± 0.24 | 1.63 ± 0.07 | 1.38 ± 0.023 | 1.7 ± 0.048 | 1.38 ± 0.26 | 1.73 ± 0.11 | 1.69 ± 0.11 | 0.267 ± 0.022 | 1.55 ± 0.035 | 0.189 ± 0.0056 | 1.02 ± 0.032 | 1.76 ± 0.13 | 1.75 ± 0.1 |  |
| SKBR3 BREAST | 1.62 | 1.76 | 1.38 | 3.1 | 0.615 ± 0.048 | 0.561 ± 0.009 | 0.414 ± 0.021 | 0.389 ± 0.015 | 0.37 ± 0.03 | 0.316 ± 0.016 | 0.312 ± 0.021 | 0.295 ± 0.018 | 1.11 ± 0.13 | 1.1 ± 0.15 | 1.07 ± 0.15 | 1.15 ± 0.1 | 1.11 ± 0.024 | 1.05 ± 0.08 | 1.04 ± 0.15 | 0.874 ± 0.06 |
| SNU475 LIVER | 1.98 | 1.81 | 2.17 | 3.16 | 0.489 ± 0.032 | 0.447 ± 0.028 | 0.41 ± 0.042 | 0.364 ± 0.018 | 0.381 ± 0.028 | 0.35 ± 0.01 | 0.303 ± 0.0065 | 0.343 ± 0.017 | 1.01 ± 0.03 |  | 0.974 ± 0.064 | 0.982 ± 0.044 | 0.957 ± 0.03 | 1 ± 0.047 | 0.909 ± 0.012 | 0.88 ± 0.057 |
| SUM149 BREAST | 1.13 | 0.539 | 1.46 | 2.41 | 0.844 ± 0.035 | 0.671 ± 0.098 | 0.536 ± 0.068 | 0.523 ± 0.079 | 0.462 ± 0.039 | 0.411 ± 0.04 | 0.403 ± 0.023 | 0.335 ± 0.03 | 1.1 ± 0.12 | 1.11 ± 0.12 | 1.01 ± 0.13 | 0.966 ± 0.082 | 0.922 ± 0.13 | 0.75 ± 0.03 | 0.454 ± 0.042 | 0.434 ± 0.033 |
| SUM159 BREAST | 2.39 | 1.68 | 1.98 | 2.91 | 1.08 ± 0.023 | 1.09 ± 0.024 | 0.921 ± 0.047 | 0.851 ± 0.04 | 0.852 ± 0.06 | 0.807 ± 0.014 | 0.808 ± 0.022 | 0.784 ± 0.021 | 1.11 ± 0.039 | 1.1 ± 0.033 | 1.09 ± 0.023 | 1.07 ± 0.024 | 1.07 ± 0.013 | 1.05 ± 0.015 | 1.07 ± 0.012 | 1.06 ± 0.016 |
| SYO1 SYNOVIAL | 0.731 | 0.79 | 1.3 | 2.14 | 0.8921 ± 0.0089 | 0.834 ± 0.011 | 0.661 ± 0.016 | 0.602 ± 0.036 | 0.508 ± 0.011 | 0.508 ± 0.0081 | 0.484 ± 0.036 | 0.45 ± 0.022 | 1.02 ± 0.016 | 1.04 ± 0.034 | 1.03 ± 0.017 | 0.986 ± 0.067 | 1.01 ± 0.023 | 1.01 ± 0.015 | 1.02 ± 0.028 |  |
| T47D BREAST | 2.87 | 2.72 | 1.99 | 2.95 | 0.892 ± 0.044 | 0.815 ± 0.047 | 0.686 ± 0.041 | 0.637 ± 0.021 | 0.646 ± 0.021 | 0.664 ± 0.038 | 0.6 ± 0.018 | 0.603 ± 0.022 | 1.13 ± 0.059 | 1.08 ± 0.052 | 1.13 ± 0.084 | 1.09 ± 0.028 | 1.18 ± 0.039 | 1.17 ± 0.048 | 1.16 ± 0.084 | 1.12 ± 0.039 |
| U2OS BONE | 1.35 | 1.49 | 2.14 | 2.88 | 0.954 ± 0.025 | 0.88 ± 0.039 | 0.7943 ± 0.0025 | 0.706 ± 0.039 | 0.678 ± 0.011 | 0.651 ± 0.029 | 0.633 ± 0.012 | 0.568 ± 0.03 | 1.06 ± 0.016 |  |  |  | 1.11 ± 0.015 | 1.04 ± 0.028 | 1.02 ± 0.014 |  |
| VP229 BREAST | 1.92 | 1.97 | 2 | 3.78 | 0.812 ± 0.056 | 0.664 ± 0.048 | 0.645 ± 0.086 | 0.566 ± 0.051 | 0.584 ± 0.01 | 0.541 ± 0.058 | 0.507 ± 0.061 | 0.511 ± 0.045 | 1.05 ± 0.087 | 1.21 ± 0.12 | 1.17 ± 0.14 | 1.1 ± 0.086 | 1.06 ± 0.091 | 0.825 ± 0.048 | 0.568 ± 0.048 | 0.413 ± 0.06 |
